This is an account of results in patent US8921271B2, “Herbicidal composition comprising flazasulfuron and metribuzin” (Ishihara Sangyo Kaisha, Ltd., priority 2011, dated 2014).

Test [1] deals with summergrass, giant foxtail, redroot pigweed and threeseeded copperleaf. Description: Test Example 5: field test, foliar treatment, weed coverage (residual activity). Type of test: in vivo. To be noted: for Weed coverage (%) 6th day after treatment / Weed coverage (%) 20th day after treatment / Weed coverage (%) 33rd day after treatment: field, foliar treatment with 0.25 vol % Agral, coverage relative to non-treated area; for change in weed coverage: on the 20th day after the treatment, single active ingredient, field test. From the text:
In a field in which summergrass (Digitaria ciliaris (Retz.) Koel), giant foxtail (Setaria faberi Herrm.), redroot pigweed (Amaranthus retroflexus L.) and threeseeded copperleaf (Acalypha australis L.) emerged, was compartmentalized into compartments of 0.5×1 m. When summergrass reached from 5 to 10 leaf stage, giant foxtail reached from 6 to 7 leaf stage, threeseeded copperleaf reached from 4 to 10 leaf stage and redroot pigweed reached from 6 to 9 leaf stage, SHIBAGEN DF (tradename) and Unimark (tradename) in predetermined amounts were diluted with water (corresponding to 200 L/ha) containing 0.25 vol % of an agricultural adjuvant Agral (tradename) and applied for foliar treatment by a small sprayer in each compartment.
On the 6th, 20th and 33rd days after the treatment, the weed coverage (%) of the above four types of weeds in each compartment was visually observed, and the results are shown in Table 5 and FIG. 1. The weed coverage (%) was calculated in accordance with the following formula.
A: (the area of the ground surface covered with the weed aerial part (leaves and stem) in the treated area)
B: (the area of the ground surface covered with the weed aerial part (leaves and stem) in the non-treated area) Weed coverage(%)=(A/B)×100
In FIG. 1, x-x represents the weed coverage in the area treated with flazasulfuron, ▴-▴ represents the weed coverage in the area treated with metribuzin, and ●-● represents the weed coverage in the area treated with flazasulfuron and metribuzin in combination.

Test [2] has as its system goosegrass. Description: Test Example 1: pot test, soil treatment, visual growth inhibition of goosegrass. Type of test: in vivo, Eleusine indica (L.) Gaertn. To be noted: Eleusine indica, 24 h, soil treatment one day after sowing, 14th day after treatment, read-out: Growth inhibition rate (%) of goosegrass, Measured value. The method, then: Upland field soil was put into a 1/1,000,000 hectare pot, and seeds of goosegrass (Eleusine indica (L.) Gaertn.) were sown. One day later, water dispersible granules containing flazasulfuron as an active ingredient (tradename: SHIBAGEN DF, manufactured by Ishihara Sangyo Kaisha, Ltd.) and water dispersible granules containing metribuzin as an active ingredient (tradename: Unimark, manufactured by UPL) in predetermined amounts were diluted with water corresponding to 200 L/ha and applied for soil treatment by a small sprayer.
On the 14th day after the treatment, the state of growth of goosegrass was visually observed to determine the growth inhibition rate (%) (measured value) in accordance with the following evaluation standard. Further, in accordance with the Colby's formula, the growth inhibition rate (%) (calculated value) was calculated. Growth inhibition rate(%)=0 (equivalent to the non-treated area) to 100 (complete kill)

The next test concerns ivy-leaved morningglory. Description: Test Example 3: pot test, treatment the day after sowing, visual growth inhibition of ivy-leaved morningglory. To be noted: Ipomoea, treatment on the day after sowing, 14th day after treatment, read-out: Growth inhibition rate (%) of ivy-leaved morningglory, Measured value. The class given is in vivo, Ipomoea hederacea (L.) Jacq. The procedure: Upland field soil was put into a 1/1,000,000 ha pot, and seeds of ivy-leaved momingglory (Ipomoea hederacea (L.) Jacq.) were sown. On the next day, SHIBAGEN DF (tradename) and Unimark (tradename) in predetermined amounts were diluted with water corresponding to 300 L/ha and applied for […] by a small sprayer. On the 14th day after the treatment, the state of growth of ivy-leaved momingglory was visually observed, and the growth inhibition rate (%) obtained in the same manner as in Test Example 1 is shown in Table 3.

For test [3], the system named is goosegrass. Description: Test Example 2: pot test, foliar treatment at 5 leaf stage, visual growth inhibition of goosegrass. The class given is in vivo, Eleusine indica (L.) Gaertn. The following applies: Eleusine indica, foliar treatment at 5 leaf stage with 0.25 vol % Agral, 28th day after treatment, read-out: Growth inhibition rate (%) of goosegrass, Measured value. The procedure: Upland field soil was put into a 1/1,000,000 ha pot, and seeds of goosegrass (Eleusine indica (L.) Gaertn.) were sown. When goosegrass reached 5 leaf stage, SHIBAGEN DF (tradename) and Unimark (tradename) in predetermined amounts were diluted with water (corresponding to 200 L/ha) containing 0.25 vol % of an agricultural adjuvant (tradename: Agral, manufactured by Syngenta crop protection) and applied for foliar treatment by a small sprayer.
On the 28th day after the treatment, the state of growth of goosegrass was visually observed, and the growth inhibition rate (%) obtained in the same manner as in Test Example 1 is shown in Table 2.

The test system of the next test is shattercane. Briefly: Test Example 4: pot test, soil treatment, visual growth inhibition of shattercane. The class given is in vivo, Sorghum bicolor (L.) Moench. The following applies: Sorghum bicolor, soil treatment on the day after sowing, 14th day after treatment, read-out: Growth inhibition rate (%) of shattercane, Measured value. The procedure:
Upland field soil was put into a 1/1,000,000 ha pot, and seeds of shattercane (Sorghum bicolor (L.) Moench.) were sown. On the next day, SHIBAGEN DF (tradename) and Unimark (tradename) in predetermined amounts were diluted with water corresponding to 300 L/ha and applied for soil treatment by a small sprayer.
On the 14th day after the treatment, the state of growth of shattercane was visually observed, and the growth inhibition rate (%) obtained in the same manner as in Test Example 1 is shown in Table 4.

One may read the inhibition as how much of the control response was suppressed. As for `COc1cc(OC)nc(NC(=O)NS(=O)(=O)c2ncccc2C(F)(F)F)n1` [Flazasulfuron, 1-(4,6-dimethoxypyrimidin-2-yl)-3-(3-trifluoromethyl-2-pyridylsulfonyl)urea], in test [1] (dose 37.5 g/ha), the “Weed coverage (%) 6th day after treatment” value is given as 26%, the “Weed coverage (%) 20th day after treatment” value turned out to be 30% and the “Weed coverage (%) 33rd day after treatment” value is on record as 65%. Further, the “change in weed coverage” value in test [1] is listed as “an increase in the weed coverage was confirmed”. Besides, the inhibition at 18.75 g/ha with goosegrass [2] (dose 18.75 g/ha, 0 = non-treated, 100 = complete kill) turned out to be 30%. Also, the inhibition at 100 g/ha with ivy-leaved morningglory (dose 100 g/ha) was found to be 80%. Moreover, the inhibition at 37.5 g/ha in the test with goosegrass [3] (dose 37.5 g/ha) is 25%. For the same compound, the inhibition at 15 g/ha in the test on shattercane (dose 15 g/ha) was 30%.

In the case of `CSc1nnc(C(C)(C)C)c(=O)n1N` [Metribuzin, 4-amino-6-tertiary butyl-3-methylthio-1,2,4-triazin-5(4H)-one], in test [1] (dose 1,200 g/ha), the “Weed coverage (%) 6th day after treatment” value is listed as 19%, the “Weed coverage (%) 20th day after treatment” value is recorded as 24% and the “Weed coverage (%) 33rd day after treatment” value was determined as 35%. In addition, in test [1], the “change in weed coverage” value is “an increase in the weed coverage was confirmed”. In the test on goosegrass [2] (dose 300 g/ha), the inhibition at 300 g/ha is 55%. The inhibition at 600 g/ha in the test on goosegrass [2] (dose 600 g/ha) stood at 73%. Also, the inhibition at 300 g/ha in the test on ivy-leaved morningglory (dose 300 g/ha) amounted to 0%. Moreover, in the test with goosegrass [3] (dose 800 g/ha), the inhibition at 800 g/ha was found to be 83%. Further, the inhibition at 1000 g/ha with goosegrass [3] (dose 1,000 g/ha) came to 90%. Moreover, in the test with shattercane (dose 2,000 g/ha), the inhibition at 2000 g/ha turned out to be 20%.
